Data: PMC7582770, “Synthesis of “All-Cis” Trihydroxypiperidines from a Carbohydrate-Derived Ketone: Hints for the Design of New β-Gal and GCase Inhibitors” (Molecules, 2020)

How the values were obtained:
[1] = biological target: T1, human lysosomal β-galactosidase (β-Gal) (Homo sapiens, UniProt P16278); test: β-Gal inhibition in human leukocyte homogenates; type: biochemical; details: compounds 1 mM; human leukocytes extracts
T1 construct: in leukocytes isolated from healthy donors (controls); endogenous in cells; host or cells: human leukocytes from healthy donors, disrupted by sonication (crude homogenate)
T1 sequence (P16278 29-677): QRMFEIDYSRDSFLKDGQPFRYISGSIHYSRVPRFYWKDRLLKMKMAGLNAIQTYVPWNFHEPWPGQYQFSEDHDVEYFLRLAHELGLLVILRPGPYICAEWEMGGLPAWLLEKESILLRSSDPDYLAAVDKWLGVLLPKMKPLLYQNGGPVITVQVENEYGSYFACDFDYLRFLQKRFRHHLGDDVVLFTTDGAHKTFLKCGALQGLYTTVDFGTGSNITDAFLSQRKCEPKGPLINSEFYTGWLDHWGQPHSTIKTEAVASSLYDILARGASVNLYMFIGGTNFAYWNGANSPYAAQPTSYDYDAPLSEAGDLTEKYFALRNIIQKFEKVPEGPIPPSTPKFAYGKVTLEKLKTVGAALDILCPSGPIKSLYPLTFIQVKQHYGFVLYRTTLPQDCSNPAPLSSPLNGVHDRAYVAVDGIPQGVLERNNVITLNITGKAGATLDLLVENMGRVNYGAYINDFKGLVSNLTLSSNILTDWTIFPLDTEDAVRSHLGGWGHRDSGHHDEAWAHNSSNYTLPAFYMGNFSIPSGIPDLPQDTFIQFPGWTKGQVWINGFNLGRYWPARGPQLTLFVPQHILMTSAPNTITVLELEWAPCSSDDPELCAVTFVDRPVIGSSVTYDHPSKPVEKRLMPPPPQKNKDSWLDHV
Description: The new compounds were screened at 1 mM concentration towards β-galactosidase (β-Gal) and β-glucosidase (GCase) in leukocytes isolated from healthy donors (controls). Isolated leukocytes were disrupted by sonication, and a Micro BCA Protein Assay Kit (Sigma–Aldrich, St. Louis, MO, USA) was used to determine the total protein amount for the enzymatic assay, according to the manufacturer’s instructions.
β-Gal activity was measured in a flat-bottomed 96-well plate. Azasugar solution (3 μL), 4.29 μg/μL leukocytes homogenate 1:10 (7 μL), and substrate 4-methylumbelliferyl β-D-galactopyranoside (1.47 mM, 20 μL, Sigma–Aldrich) in acetate buffer (0.1 M, pH 4.3) containing NaCl (0.1 M) and sodium azide (0.02%) were incubated at 37 °C for 1 h. The reaction was stopped by addition of sodium carbonate (200 μL; 0.5 M, pH 10.7) containing Triton X-100 (0.0025%), and the fluorescence 4-methylumbelliferone released by β-galactosidase activity was measured in SpectraMax M2 Microplate Reader (λex = 365 nm and λem = 435 nm; Molecular Devices LLC, San Jose, CA, US). Inhibition is given with respect to the control (without azasugar). Data are mean SD (n = 3).

[2] = system: α-glucosidase EC 3.2.1.20; test: Commercial glycosidase screening; type: biochemical, yeast; details: 0.1 mM inhibitor
Text: (§1) A panel of 12 commercial glycosidases (α-L-fucosidase EC 3.2.1.51 from Homo sapiens, α-galactosidase EC 3.2.1.22 from coffee beans, β-galactosidases EC 3.2.1.23 from Escherichia coli and Aspergillus oryzae, α-glucosidases EC 3.2.1.20 from yeast and rice, amyloglucosidase EC 3.2.1.3 from Aspergillus niger, β-glucosidase EC 3.2.1.21 from almonds, α-mannosidase EC 3.2.1.24 from Jack beans, β-mannosidase EC 3.2.1.25 from snail, β-N-acetylglucosaminidases EC 3.2.1.52 from Jack beans and bovine kidney) purchased from Sigma-Aldrich (St. Louis, MO, USA) or Megazyme Ltd. (Bray, Co. Wicklow, Ireland) was screened.
(§2) The percentage (%) of inhibition towards the corresponding glycosidase was determined in quadruplicate in the presence of 100 μM of the inhibitor on the well. Each enzymatic assay (final volume 0.12 mL) contains 0.01–0.5 units/mL of the enzyme (with previous calibration) and 4.2 mM aqueous solution of the appropriate p-nitrophenyl glycopyranoside (substrate) buffered to the optimal pH of the enzyme. Enzyme and inhibitor were preincubated for 5 min at room temperature, and the reaction started by addition of the substrate. After 20 min of incubation at 37 °C, the reaction was stopped by the addition of 0.1 mL of sodium borate solution (pH 9.8). The p-nitrophenolate formed was measured by visible absorption spectroscopy at 405 nm (Asys Expert 96 spectrophotometer, Biochrom Ltd., Cambridge, England). Under these conditions, the p-nitrophenolate released led to optical densities linear with both reaction time and concentration of the enzyme (for more details, see the Supplementary Materials). The IC50 value (concentration of inhibitor required for 50% inhibition of enzyme activity) was determined from plots of % inhibition vs. different inhibitor concentrations. Each point of the graph is the average of four measures. The standard deviation for each point has been also represented in the graph.

[3] = system: α-glucosidase EC 3.2.1.20; test: Commercial glycosidase screening; type: biochemical, rice; details: 0.1 mM inhibitor
Text: as §1, §2

CCCCCCCCCO[C@@H]1CNC[C@@H](O)[C@H]1O [compound 21, (3R, 4R, 5R)-4,5-Dihydroxy-3-(Nonyloxy) Piperidine]
inhibition at 1000 µM [1]: 0% | % Inhibition at 0.1 mM, α-glucosidase yeast [2]: - (no inhibition detected) | % Inhibition at 0.1 mM, α-glucosidase rice [3]: - (no inhibition detected)

CCCCCCCCCCCCN[C@H]1CNC[C@@H](O)[C@H]1O [compound 10, (3R, 4S, 5S)-3,4-Dihydroxy-5-(Dodecylamino) Piperidine]
inhibition at 1000 µM [1]: 0% | % Inhibition at 0.1 mM, α-glucosidase yeast [2]: - (no inhibition detected) | % Inhibition at 0.1 mM, α-glucosidase rice [3]: - (no inhibition detected)

CCCCCCCC[C@]1(O)CNC[C@@H](O)[C@H]1O [compound 12, (3S, 4R, 5R)-3,4,5-Trihydroxy-3-Octyl-Piperidine]
inhibition at 1000 µM [1]: 0% | % Inhibition at 0.1 mM, α-glucosidase yeast [2]: - (no inhibition detected) | % Inhibition at 0.1 mM, α-glucosidase rice [3]: - (no inhibition detected)

CCCCCCCCCO[C@H]1CNC[C@@H](O)[C@H]1O [compound 9, (3S, 4R, 5R)-4,5-Dihydroxy-3-(Nonyloxy) Piperidine]
inhibition at 1000 µM [1]: 22%
